Reference: patent publication US9108950B2, “1-pyrazolyl-3-(4-((2-anilinopyrimidin-4-yl)oxy)napththalen-1-yl) ureas as p38 MAP kinase inhibitors” (Respivert Ltd., priority 2011, dated 2015)

Experiments:
[1] = tested on: LPS-induced neutrophil accumulation; experiment: LPS-induced neutrophil accumulation in mice; assay type: in vivo, Balb/c mice
Method: […] At T=0, mice were placed into an exposure chamber and exposed to LPS (7.0 mL, 0.5 mg/mL solution in PBS) for 30 min). After a further 8 hr the animals were anesthetized, their tracheas cannulated and BALF extracted by infusing and then withdrawing from their lungs 1.0 mL of PBS via the tracheal catheter. Total and differential white cell counts in the BALF samples were measured using a Neubaur haemocytometer. Cytospin smears of the BALF samples were prepared by centrifugation at 200 rpm for 5 min at RT and stained using a DiffQuik stain system (Dade Behring). Cells were counted using oil immersion microscopy. Data for neutrophil numbers in BAL are shown as mean±S.E.M. (standard error of the mean). The percentage inhibition of neutrophil accumulation was calculated for each treatment relative to vehicle treatment.

[2] = Dynamic vapour sorption; assay type: physicochemical; settings: form B micronized
Method: Plots were obtained using a Surface Measurement Systems dynamic vapor sorption model DVS-1 using about 10 mg of the sample. The weight change was recorded with respect to atmospheric humidity at 25° C. and was determined using the following parameters: drying: 60 min under dry nitrogen; equilibrium: 60 min/step; data interval: 0.05% or 2.0 min. The relative humidity [RH %] measurement points were as follows:
The DVS isotherm plot for the micronized reference sample is illustrated in FIG. 4 and the DVS change in mass plot for the micronized reference sample is illustrated in FIG. 5. […] The product adsorbed up to 0.4% moisture depending on the atmospheric humidity.

[3] = 0.05 mg/mL intra tracheal, 2 hr pre-dose

Cc1ccc(-n2nc(C(C)(C)C)cc2NC(=O)Nc2ccc(Oc3ccnc(Nc4ccccc4)n3)c3ccccc23)cc1 [Compound (I), 1-(3-(tert-Butyl)-1-(p-tolyl)-1H-pyrazol-5-yl)-3-(4-((2-(phenylamino)pyrimidin-4-yl)oxy)naphthalen-1-yl)urea]
% inhibition of neutrophil accumulation [1, 3]: 18%
Neutrophil numbers in BALF [1, 3]: 15.6 ± 2.1 ×10^5/mL
% inhibition of neutrophil accumulation ([1]; 0.2 mg/mL, 2 hr pre-dose): 48%
Neutrophil numbers in BALF ([1]; 0.2 mg/mL, 2 hr pre-dose): 9.8 ± 1.6 ×10^5/mL
% inhibition of neutrophil accumulation ([1]; 1.0 mg/mL, 2 hr pre-dose): 77%
Neutrophil numbers in BALF ([1]; 1.0 mg/mL, 2 hr pre-dose): 4.4 ± 0.89 ×10^5/mL
% inhibition of neutrophil accumulation ([1]; 1.0 mg/mL, 8 hr pre-dose): 48%
Neutrophil numbers in BALF ([1]; 1.0 mg/mL, 8 hr pre-dose): 9.9 ± 1.8 ×10^5/mL
% inhibition of neutrophil accumulation ([1]; 1.0 mg/mL, 12 hr pre-dose): 4%
Neutrophil numbers in BALF ([1]; 1.0 mg/mL, 12 hr pre-dose): 18.3 ± 2.3 ×10^5/mL
duration of action (time course experiment) ([1]; mice): long duration of action
effect on LPS-induced neutrophil accumulation ([1]; mice): dose dependent inhibition
hygroscopic behavior (DVS) [2]: no hygroscopic behavior
moisture adsorbed (DVS) ([2]; depending on atmospheric humidity, 25° C.): up to 0.4%
